Some test systems named below: DMS 114 small cell lung; HL-60(TB) leukemia; HOP-62 NSCLC; LXFL 529 NSCLC; OVCAR-4 ovarian; SF-268 CNS; SK-MEL-2 melanoma; SNB-78 CNS; SR leukemia; NCI-H226 lung; MDA-MB-435; PC-3 prostate.
Test in all cases: growth of human tumour cells (NCI), 48 h

SMILES strings stand for the structures.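 Method: 48-hour compound exposure of cells in 96-well plates, five concentrations, linear interpolation of endpoints. The concentration for 50% growth inhibition is given as GI50. TGI marks complete inhibition of growth.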 Bounds are passed on as bounds.

In the case of `CC(OC(C)(C)C)[C@H](NC(=O)OCC(Cl)(Cl)Cl)C(=O)O` (stereo partly drawn), the TGI in the assay on DMS 114 small cell lung, in the assay with HL-60(TB) leukemia, in the assay on HOP-62 NSCLC, in the assay on LXFL 529 NSCLC, in the assay on OVCAR-4 ovarian and in the assay with SF-268 CNS was more than 100 µM throughout. The TGI in the assay on SK-MEL-2 melanoma, in the assay with SNB-78 CNS and in the assay on SR leukemia was more than 100 µM throughout.
On to `CN(C)CCC(=O)c1ccccc1`, for which the TGI in the assay with DMS 114 small cell lung was more than 56.2 µM; in the assay with HL-60(TB) leukemia, more than 64.2 µM; in the assay with HOP-62 NSCLC, more than 100 µM; with LXFL 529 NSCLC, 44.7 µM; with NCI-H226 lung, 98.4 µM; in the assay on OVCAR-4 ovarian it was more than 74.1 µM. Further, the TGI is more than 74.7 µM in the assay with SF-268 CNS, more than 84.4 µM in the assay on SK-MEL-2 melanoma, 69 µM in the assay with SNB-78 CNS and 57.4 µM in the assay with SR leukemia.
For the molecule `CCC(/C=C/C1OC(=O)C=CC1C)=C\C(C)C/C=C/C(C)=C/C(C)C(=O)C(C)C(O)C(C)C/C(C)=C/C(=O)O` (stereo not drawn), the TGI is 4.18 µM in the assay with DMS 114 small cell lung; 2.64e-05 µM in the assay on MDA-MB-435; 7.64 µM with SF-268 CNS; 14.3 µM with SNB-78 CNS; 2.28e-05 µM in the assay on SR leukemia. The GI50 is less than 1 pM with HL-60(TB) leukemia; 0.0236 nM with HOP-62 NSCLC; 1.72 pM with NCI-H226 lung; less than 1e-06 µM in the assay on OVCAR-4 ovarian; 1.89 µM in the assay on SF-268 CNS; 0.0281 nM in the assay with SK-MEL-2 melanoma.
With `NC(=O)C(C(N)=O)=C(O)C(=O)/C=C(\O)c1ccccc1`, the TGI is 58.8 µM in the assay on HL-60(TB) leukemia; more than 100 µM with HOP-62 NSCLC; more than 100 µM in the assay with MDA-MB-435; more than 100 µM in the assay with NCI-H226 lung; more than 100 µM in the assay on OVCAR-4 ovarian; more than 100 µM in the assay with PC-3 prostate. Besides, the TGI in the assay on SF-268 CNS is more than 100 µM; in the assay with SK-MEL-2 melanoma it was more than 100 µM; in the assay on SR leukemia, 13.9 µM.
Take `CCOC(=O)NC(Nc1ccc(S(=O)(=O)Nc2nc(C)cc(C)n2)cc1)(C(=O)OCC)C(F)(F)F` (stereo not drawn): the TGI in the assay on HL-60(TB) leukemia, with HOP-62 NSCLC, in the assay with MDA-MB-435, with NCI-H226 lung, in the assay with OVCAR-4 ovarian and in the assay with PC-3 prostate was more than 100 µM in each case. Also, the TGI was more than 100 µM in the assay with SF-268 CNS, more than 100 µM in the assay with SK-MEL-2 melanoma and 27.4 µM in the assay on SR leukemia.
`O=c1cc(-c2cccc3ccccc23)[nH]c2ncccc12`: the TGI with HL-60(TB) leukemia was 0.0315 µM; in the assay with HOP-62 NSCLC it was more than 100 µM; in the assay on MDA-MB-435 it was 0.00404 µM; in the assay with NCI-H226 lung, more than 100 µM; in the assay on OVCAR-4 ovarian, more than 100 µM; in the assay with PC-3 prostate, more than 100 µM. Besides, the TGI in the assay with SF-268 CNS, in the assay on SK-MEL-2 melanoma and in the assay on SR leukemia was more than 100 µM in each case. Further, the results for the GI50 with OVCAR-4 ovarian, in the assay with SF-268 CNS and in the assay with SK-MEL-2 melanoma were 77.6 µM, 10.1 µM and 13.6 nM, respectively.
For the molecule `COc1cc2c(C)cc(O)cc2c2cc(O)c(C)cc12`, the TGI in the assay with HL-60(TB) leukemia was 13 µM; with HOP-62 NSCLC, 15.5 µM; in the assay on MDA-MB-435 it was 19.2 µM; in the assay on NCI-H226 lung, 28.2 µM; in the assay with OVCAR-4 ovarian it was 21.9 µM; with PC-3 prostate it was 19 µM. Further, the TGI with SF-268 CNS turned out to be 29.6 µM; in the assay on SK-MEL-2 melanoma, 31.3 µM; with SR leukemia it was 6.18 µM.
Consider `COC(=O)C1=C(O)C(C(=O)OC)[C@]2(O)[C@H](C(=O)OC)[C@H]1C[C@@H](c1ccc(C(F)(F)F)cc1)[C@H]2C(=O)OC` (stereo partly drawn), for which the TGI with HL-60(TB) leukemia was 30.2 µM; with HOP-62 NSCLC it was more than 100 µM; in the assay with MDA-MB-435, more than 100 µM; in the assay with NCI-H226 lung, 7.36 µM; in the assay with OVCAR-4 ovarian it was more than 100 µM; with PC-3 prostate, 94.6 µM. The TGI was more than 100 µM in the assay on SF-268 CNS, 15.1 µM in the assay with SK-MEL-2 melanoma and more than 100 µM with SR leukemia.
For the molecule `Cn1ccc(C(=O)NCCN(CCNC(=O)c2ccn(C)c(=O)c2O)CCNC(=O)c2cccc(=O)n2O)c(O)c1=O`, the TGI in the assay with HL-60(TB) leukemia, in the assay on HOP-62 NSCLC, in the assay with MDA-MB-435, in the assay on NCI-H226 lung, in the assay on OVCAR-4 ovarian and in the assay on PC-3 prostate was more than 100 µM each time. Besides, the TGI in the assay on SF-268 CNS, in the assay on SK-MEL-2 melanoma and with SR leukemia was more than 100 µM each time.
As for `CCOC1OC(=O)c2cc3ccc4c(c3c(-c3ccc5c(c3)OCO5)c21)OCO4` (stereo not drawn), the TGI is more than 100 µM in the assay with HL-60(TB) leukemia; more than 100 µM in the assay with HOP-62 NSCLC; more than 28 µM with MDA-MB-435; more than 74 µM in the assay on NCI-H226 lung; more than 100 µM in the assay on OVCAR-4 ovarian; more than 100 µM in the assay on PC-3 prostate. For the same molecule, the TGI with SF-268 CNS was more than 100 µM; with SK-MEL-2 melanoma, more than 100 µM; in the assay with SR leukemia, 5.43 µM.
Turning to `N#Cc1c(N)nc2n[nH]c(N)c2c1-c1ccc(Cl)cc1`, the TGI with HL-60(TB) leukemia is more than 100 µM; with HOP-62 NSCLC, 71.5 µM; in the assay on MDA-MB-435, more than 74.4 µM; with NCI-H226 lung it was more than 100 µM; with OVCAR-4 ovarian, more than 100 µM; with PC-3 prostate, 16.7 µM. For the same molecule, the TGI with SF-268 CNS was more than 100 µM; in the assay with SK-MEL-2 melanoma, 6.57 µM; with SR leukemia, more than 100 µM.
For `CN(CC(=O)O)c1ncc2c(n1)CCCC2`, the TGI with HL-60(TB) leukemia, in the assay with HOP-62 NSCLC, in the assay with MDA-MB-435, with NCI-H226 lung, in the assay on OVCAR-4 ovarian and with PC-3 prostate was more than 100 µM each time. Further, the TGI in the assay with SF-268 CNS, with SK-MEL-2 melanoma and in the assay on SR leukemia was more than 100 µM in each case.
On to `Cn1c(=O)n(C2(C)C[Se]C2)c2ccccc21`, for which the TGI in the assay on HL-60(TB) leukemia, with HOP-62 NSCLC, in the assay on LXFL 529 NSCLC, in the assay on NCI-H226 lung, with OVCAR-4 ovarian and in the assay with SF-268 CNS was more than 100 µM each time. The TGI in the assay with SK-MEL-2 melanoma, in the assay on SNB-78 CNS and in the assay with SR leukemia was more than 100 µM each time.
As for `COC(=O)c1ccccc1/C=C1\Cc2ccc(C)c(C)c2C1=O`, the TGI in the assay with HL-60(TB) leukemia, in the assay on HOP-62 NSCLC, with MDA-MB-435, in the assay with NCI-H226 lung, in the assay with OVCAR-4 ovarian and in the assay with PC-3 prostate was more than 100 µM throughout. The TGI with SF-268 CNS, with SK-MEL-2 melanoma and with SR leukemia was more than 100 µM each time.
Take `O=Cc1[nH]c(=O)[nH]c(=O)c1C(=O)O`: the TGI in the assay with HL-60(TB) leukemia, in the assay on HOP-62 NSCLC, in the assay with MDA-MB-435, in the assay on NCI-H226 lung, in the assay with OVCAR-4 ovarian and in the assay on PC-3 prostate was more than 100 µM throughout. Moreover, the TGI in the assay on SF-268 CNS, in the assay on SK-MEL-2 melanoma and in the assay on SR leukemia was more than 100 µM each time.
In the case of `CN1C2CCC1CC(=CCOC(c1ccc(F)cc1)c1ccc(F)cc1)C2`, the TGI with HL-60(TB) leukemia stood at 43.5 µM; in the assay with HOP-62 NSCLC, 32.2 µM; in the assay with MDA-MB-435, 25.7 µM; in the assay on NCI-H226 lung it was 37.4 µM; with OVCAR-4 ovarian, 31.9 µM; in the assay with PC-3 prostate, 33.1 µM. The TGI with SF-268 CNS worked out at 27 µM; with SK-MEL-2 melanoma, 39.4 µM; with SR leukemia it was 37.3 µM.
On to `Fc1cc(-c2cc(-c3ccccc3)no2)c(Cl)cc1Cl`, for which the TGI in the assay on HL-60(TB) leukemia was more than 37.7 µM; in the assay with HOP-62 NSCLC, more than 54.8 µM; with MDA-MB-435 it was more than 35.9 µM; in the assay with NCI-H226 lung, more than 23.3 µM; with OVCAR-4 ovarian it was more than 77.3 µM; in the assay on PC-3 prostate it was more than 50 µM. Also, the values for the TGI in the assay with SF-268 CNS, with SK-MEL-2 melanoma and in the assay with SR leukemia were more than 54.2 µM, more than 40.1 µM and more than 41.8 µM, respectively.
Regarding `CCOC(=O)C12OC(CCC1=O)C(C(=O)OC)=C2C(=O)OC` (stereo not drawn), the TGI in the assay on HL-60(TB) leukemia, in the assay with HOP-62 NSCLC, in the assay on MDA-MB-435, with NCI-H226 lung, in the assay with OVCAR-4 ovarian and with PC-3 prostate was more than 10 µM in each case. Besides, the TGI in the assay on SF-268 CNS, with SK-MEL-2 melanoma and with SR leukemia was more than 10 µM throughout.
Regarding `Cc1ccnc2[nH]c3ccccc3c(=O)c12`, the TGI was 61.3 µM in the assay with HL-60(TB) leukemia; more than 100 µM in the assay on HOP-62 NSCLC; 41.8 µM in the assay on MDA-MB-435; more than 100 µM in the assay with NCI-H226 lung; more than 100 µM in the assay with OVCAR-4 ovarian; 81.6 µM in the assay on PC-3 prostate. The TGI is 45.5 µM in the assay with SF-268 CNS, 68.7 µM in the assay with SK-MEL-2 melanoma and more than 100 µM in the assay with SR leukemia.
In the case of `Oc1[nH]c2ccccc2c1N=NC(=S)Nc1cccc(Cl)c1`, the TGI in the assay on HL-60(TB) leukemia is 49.6 µM; with HOP-62 NSCLC it was 42.5 µM; with MDA-MB-435 it was 99.4 µM; with NCI-H226 lung it was 55.2 µM; with OVCAR-4 ovarian, 59.4 µM; with PC-3 prostate it was more than 100 µM. Further, the TGI was more than 100 µM in the assay with SF-268 CNS, 89.6 µM with SK-MEL-2 melanoma and 9.71 µM in the assay on SR leukemia.
Turning to `O=C(Oc1ccccn1)c1cc2cc(CCl)ccc2oc1=O`, the TGI is more than 100 µM in the assay with HL-60(TB) leukemia; 52.9 µM with HOP-62 NSCLC; more than 100 µM in the assay with MDA-MB-435; more than 100 µM with NCI-H226 lung; 55 µM in the assay on OVCAR-4 ovarian; 38.5 µM with PC-3 prostate. Further, the TGI is 39.2 µM in the assay with SF-268 CNS, more than 100 µM in the assay with SK-MEL-2 melanoma and more than 100 µM with SR leukemia.
As to `C/C=C(/C)C(=O)O[C@@H]1CCN2CC[C@H](COC(=O)/C(=C/C)CO)C12` (stereo partly drawn), the TGI in the assay with HL-60(TB) leukemia, with HOP-62 NSCLC, in the assay with MDA-MB-435, in the assay with NCI-H226 lung, in the assay on OVCAR-4 ovarian and in the assay with PC-3 prostate was more than 100 µM throughout. In addition, the TGI with SF-268 CNS, with SK-MEL-2 melanoma and in the assay with SR leukemia was more than 100 µM throughout.
For `Cc1nn(-c2ccccc2)c2c1C(c1ccc(Cl)cc1)NC(=S)N2` (stereo not drawn), the TGI in the assay on HL-60(TB) leukemia is 95.8 µM; in the assay with HOP-62 NSCLC, 80.1 µM; in the assay with MDA-MB-435, 47.4 µM; in the assay on NCI-H226 lung, more than 100 µM; with OVCAR-4 ovarian, more than 100 µM; with PC-3 prostate it was 47.9 µM. Moreover, the TGI with SF-268 CNS was more than 100 µM; with SK-MEL-2 melanoma it was 38.6 µM; in the assay on SR leukemia, more than 100 µM.

Values taken from PubChem BioAssay (NCI).
